Data as given in PubChem BioAssay (NCI).
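Dose response: 5 concentrations. Exposure: 48 h. Format: 96-well plates. Endpoint: linear interpolation; highest concentration if not reached. TGI is the concentration that stops growth completely.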

Assays:
Assay in all cases: growth of human tumour cells (NCI), 48 h
[1] = tested on: SF-539 CNS
[2] = tested on: NCI-H460 lung
[3] = tested on: A549 NSCLC
[4] = tested on: 786-0 renal
[5] = tested on: EKVX NSCLC
[6] = tested on: SN12C renal
[7] = tested on: PC-3 prostate
[8] = tested on: NCI/ADR-RES ovarian
[9] = tested on: HCT-15 colon
[10] = tested on: SK-MEL-28 melanoma
[11] = tested on: HT29 colon
[12] = tested on: SR leukemia
[13] = tested on: COLO 205 colon
[14] = tested on: A498 renal
[15] = tested on: UACC-257 melanoma
[16] = tested on: CAKI-1 renal
[17] = tested on: M14 melanoma
[18] = tested on: U251 CNS

Structure (SMILES) | TGI [1] | TGI [2] | TGI [3] | TGI [4] | TGI [5] | TGI [6] | TGI [7] | TGI [8] | TGI [9] | TGI [10] | TGI [11] | TGI [12] | TGI [13] | TGI [14] | TGI [15] | TGI [16] | TGI [17] | TGI [18]
C=C[C@@]1(C)CC2CC[C@]3(C)C(C)=CC(=O)CC3[C@]2(C)CC1O (stereo partly drawn) | > 100 µM | > 100 µM | > 100 µM | > 100 µM | > 100 µM | > 100 µM | > 100 µM | > 100 µM | > 100 µM | > 100 µM | > 100 µM | > 100 µM | > 100 µM | > 100 µM | > 100 µM | > 100 µM | > 100 µM | > 100 µM
CC(=O)OCc1cccc(O)c1C(=O)CCC=C(C)C | > 100 µM | > 100 µM | > 100 µM | > 100 µM | > 100 µM | > 100 µM | > 100 µM | > 100 µM | > 100 µM | > 100 µM | > 100 µM | > 100 µM | > 100 µM | > 100 µM | > 100 µM | > 100 µM | > 100 µM | > 100 µM
CSc1c(CC(=O)O)n(Cc2ccccc2)c2ccccc12 | > 100 µM | > 100 µM | > 100 µM | > 100 µM | > 100 µM | > 100 µM | > 100 µM | > 100 µM | > 100 µM | > 100 µM | > 100 µM | > 100 µM | > 100 µM | > 100 µM | > 100 µM | > 100 µM | > 100 µM | > 100 µM
Cn1c(=O)cc(NNc2ccc(Br)cc2)[nH]c1=O | 8.14 µM | 19.3 µM | 29.8 µM | 21.4 µM | 37.5 µM | 22.6 µM | 22.1 µM | > 100 µM | 19.6 µM | 34.7 µM | 12.2 µM | > 100 µM | 13.7 µM | > 100 µM | 29.1 µM |  | 33.4 µM | 10 µM
C[C@@H]1CCC2[C@@H](C)[C@H](O[C@H]3O[C@@H]4O[C@@]5(C)CCC6[C@H](C)CCC([C@H]3C)[C@]64OO5)O[C@@H]3O[C@@]4(C)CCC1[C@@]23OO4 (stereo partly drawn) | 21.9 µM | 17 µM | 32.3 µM | 18 µM | 18.7 µM | 15.6 µM | 12.5 µM | 15.5 µM | 12.4 µM | 27.3 µM | 13.4 µM | 1.28 µM | 0.326 µM | 9.51 µM | 18.6 µM | 13.9 µM | 20.6 µM | 23.8 µM
CN(C)C1(C(=O)O)CC1 | > 100 µM | > 100 µM | > 100 µM | > 100 µM | > 100 µM | > 100 µM | > 100 µM | > 100 µM | > 100 µM | > 100 µM | > 100 µM | > 100 µM |  | > 100 µM | > 100 µM |  | > 100 µM | > 100 µM
O=C(N1CCOCC1)C1(c2ccccc2)CCNCC1 | > 100 µM | > 100 µM | > 100 µM | > 100 µM | > 100 µM | > 100 µM | > 100 µM | > 100 µM | > 100 µM | > 100 µM | > 100 µM | > 100 µM | > 100 µM | > 100 µM | > 100 µM | > 100 µM | > 100 µM | > 100 µM
